From patent US20240358783A1, “METHOD AND SYSTEM FOR THE TRANSDERMAL ADMINISTRATION OF A P[…]” (LYFE CHNG, LLC, priority 2021, published 2024) come the findings set out here.

The data set in a line: skin flux of psilocin, inventors' testing. The class given is in vitro ADME. Here is the method: With psilocin, specifically, the Madsen et al. findings provide a starting point for identifying optimal plasma psilocin levels that correlate with a desired 5-HT2A receptor occupancy levels. According to the inventors' testing, the skin flux of psilocin is in the range of 1 μg/cm^2/hr to […], on average 5 μg/cm^2/hr. With patch area of 50 cm^2 the dose per hour input ranges from 50 μg/hr/patch to 500 μg/hr/patch. At this patch size, the high end of the hourly input is approaching that of a 1-mg intravenous application. The daily dose ranges from 1.2 mg/day/patch to 12 mg/day/patch. At a skin flux of 5 μg/cm^2/hr, the hourly input is 250 μg/hr/patch and the daily dose is 6 mg/day/patch. A suitable transdermal system for accomplishing the aforementioned delivery profile can be constructed as described above.

[1] abbreviates: patch area of 50 cm^2, at a skin flux of 5 μg/cm^2/hr.

For the compound `CN(C)CCc1c[nH]c2cccc(O)c12` [psilocin], for the setting “average, according to the inventors' testing”, the “skin flux of psilocin, on average” value came to 5 μg/cm^2/hr. Besides, under setting [1], the daily dose turned out to be 6 mg/day/patch and the hourly input came to 250 μg/hr/patch.
